Measurements: article PMC9887599, “Synthesis, Optical Properties, and Antiproliferative Evaluation of NBD-Triterpene Fluorescent Probes” (Journal of Natural Products, 2022)

Key:
[1] = test system: HepG2 cells; test: Annexin V/propidium iodide flow cytometry of cell death, HepG2; format: cell-based, human; conditions: HepG2, at IC50 concentration, after 72 h
Description: (§1) NBD-6AHA-triterpene conjugates 1 and 2 were selected for the characterization of their cytotoxic effects on the three cancer cell lines used. The percentages of cell death were determined using the concentrations corresponding to the IC50 values for each compound in the three cancer cell lines (B16-F10, HT-29, and HepG2). This study was conducted by flow cytometry, using double staining with DY634 annexin V/propidium iodide, which allows the identification and quantification of intact, apoptotic, or necrotic cells. Annexin DY634 (red fluorescence) is an apoptotic marker due to its ability to bind to phosphatidylserine exposed on the external cell surface. Propidium iodide (orange fluorescence) is a DNA marker that is capable of penetrating only when the cell is damaged, differentiating late apoptotic or necrotic cells from apoptotic ones. These conjugates (1 and 2) are green fluorescent probes, not causing interference in the fluorescence.
(§2) The apoptosis studies were conducted at 4, 24, and 72 h (Figure 5).
(§3) Cell death (apoptosis) was studied by flow cytometry using a FACScan (fluorescence-activated cell sorter) flow cytometer (Coulter Corporation, Hialeah, FL). […] In each experiment, approximately 10 × 10^3 cells were analyzed, and the experiment was duplicated twice.

[2] = test system: B16-F10 murine melanoma; test: MTT cell-viability assay, B16-F10; format: cell-based; conditions: Mus musculus, 72 h, untreated control cells as 100% viability
Description: (§4) The cytotoxic effects of 12 NBD-Aa-triterpene conjugates (1–12) were tested on three different cancer cell lines as a representation of cancers from different tissues and organs (B16-F10 murine melanoma, HT-29 human colon adenocarcinoma, and HepG2 human hepatocyte carcinoma). Cell viability was determined by MTT colorimetric analysis, with increasing concentration levels of each compound (0–200 μg/mL) and incubation for 72 h. The MTT assay was based on the metabolic reduction of 3-(4,5-dimethylthiazol-2-yl)-2,5-diphenyltetrazolium bromide (MTT) to a violet-colored compound (formazan), with a maximum absorbance at 570 nm. Cell viability was proportional to the amount of formazan and was expressed as the percentage of viable treated cells relative to untreated control cells. The concentration at which the derivatives halved the number of viable cells in the three cancer lines (IC50) was determined. […] These NBD conjugates of BO or BM also had higher IC50 values than their precursors (BO or BM), even in NBD conjugates with the shortest-chain ω-amino acid linker (6AHA) (Table 2). Due to these high IC50 values, all of these NBD-conjugated compounds were discarded for further cytometric studies.
(§5) The effect of the synthesized compounds on the viability of tumor cells was assessed using the MTT assay, based on the ability of living cells to metabolically reduce 3-(4,5-dimethylthiazole)-2,5-diphenyltetrazole bromide, rendering formazan, a colored compound with a maximum absorbance of 570 nm. To study the cytotoxic effects of the compounds in the three cancer cell lines, the different lines were seeded in 96-well plates at a cell density per well of 5 × 10^3 for B16-F10, 6 × 10^3 for HT-29, and 15 × 10^3 for HepG2. After seeding, the plates were grown for 24 h and subsequently treated in triplicate with different compounds at different concentrations (0–200 μg/mL) for 72 h. After this time, the cells were stained by adding 100 mL of MTT (0.5 mg/mL) per well and incubated for 1 h. Subsequently, the cells were washed with phosphate-buffered saline (PBS), and formazan was resuspended in 100 μL of DMSO per well. Cell viability was measured by absorbance at 550 nm in an ELISA plate reader (Tecan Sunrise MR20–301, TECAN, Austria).
(§6) For this, Sigmaplot 12.5 software was used, and all quantitative data were expressed as means ± standard deviation (SD). All data shown are representative of at least two independent experiments performed in triplicate.

[3] = test system: HT-29 human colon adenocarcinoma; test: MTT cell-viability assay, HT-29; format: cell-based; conditions: 72 h, untreated control cells as 100% viability
Description: as §4, §5, §6

[4] = test system: B16-F10 cells; test: Annexin V/propidium iodide flow cytometry of cell death, B16-F10; format: cell-based, mouse; conditions: B16-F10, at IC50 concentration, after 72 h
Description: as §1, §2, §3

[5] = Absorption and fluorescence spectroscopy (photophysical data); format: physicochemical; conditions: DMSO, 25 °C; for τ (half-life time of fluorescence): 485 nm pulsed LED; for Φ (fluorescence quantum yield): Coumarin 6 as standard; for (λem)max: excitation at 480 nm
[6] = test system: WRL68 human embryonic hepatic cells; test: MTT cytotoxicity on nontumor cells, WRL68; format: cell-based; conditions: for IC50: Homo sapiens, WRL68, MTT assay, nontumor cells; for SI (selectivity index, IC50 nontumor cells/IC50 cancer cells), WRL68: column beside WRL68
Description: (§7) Due to their greater cytotoxic activity, NBD conjugates 1 and 2 were selected to analyze their cytotoxic effects on healthy cells, using nontumor cell lines (HPF human pulmonary fibroblasts, IEC-18 epithelial rat ileum cells, and WRL68 human embryonic hepatic cells) (Table 3). The selectivity indices (SI) of the NBD-Aa-triterpene conjugates 1 and 2 were calculated with the formula: IC50 nontumor cells/IC50 cancer cells. Additionally, cell-viability percentages in the nontumor cells were measured, which ranged in most cases between 75 and 90%.
as §5, §6

[7] = test system: HPF human pulmonary fibroblasts; test: MTT cytotoxicity on nontumor cells, HPF; format: cell-based; conditions: for IC50: Homo sapiens, Pulmonary fibroblast, MTT assay, nontumor cells; for SI (selectivity index, IC50 nontumor cells/IC50 cancer cells), HPF: column beside HPF
Description: as §7, §5, §6

[8] = test system: HT-29 cells; test: Annexin V/propidium iodide flow cytometry of cell death, HT-29; format: cell-based, human; conditions: HT-29, at IC50 concentration, after 72 h
Description: as §1, §2, §3

[9] = test system: IEC-18 epithelial rat ileum cells; test: MTT cytotoxicity on nontumor cells, IEC-18; format: cell-based; conditions: for IC50: Rattus norvegicus, IEC-18, MTT assay, nontumor cells; for SI (selectivity index, IC50 nontumor cells/IC50 cancer cells), IEC-18: column beside IEC-18
Description: as §7, §5, §6

[10] = Cell-viability percentages in nontumor cells, summary; format: cell-based; conditions: human, rat; in most cases
Description: as §7
as §5, with “After this time, the cells were stained by adding 100 mL of MTT (0.5 mg/mL) per well and incubated for 1 h. Subsequently, the cells were washed with phosphate-buffered saline (PBS), and formazan was resuspended in 100 μL of DMSO per well.” left out

[11] = test system: HepG2 human hepatocyte carcinoma; test: MTT cell-viability assay, HepG2; format: cell-based; conditions: 72 h, untreated control cells as 100% viability
Description: as §4, §5, §6

[12] = design: method as in PMID 26512635; conditions: ethanol solution ref 45; cited from earlier work
[13] = test system: B16-F10, HT-29, and HepG2; test: MTT cell-viability assay, summary over the three cancer cell lines; format: cell-based, mouse, human; conditions: 72 h, stated as holding in most cases, read-out: IC50 concentrations over the three cancer cell lines, in most cases
Description: as §4, §5, §6

IC50 [2] [µM]	IC50 [3] [µM]	ε (molar extinction coefficient) [5] [M^–1 cm^–1]	τ (half-life time of fluorescence) [5] [ns]	Φ (fluorescence quantum yield) [5]	(λem)max [5] [nm]	IC50 [13] [µM]	SMILES	percentage of apoptosis [1] [%]	percentage of apoptosis [4] [%]	(λabs)max [5] [nm]	IC50 [6] [µM]	SI (selectivity index, IC50 nontumor cells/IC50 cancer cells), WRL68 [6]	IC50 [7] [µM]	SI (selectivity index, IC50 nontumor cells/IC50 cancer cells), HPF [7]	percentage of apoptosis [8] [%]	IC50 [9] [µM]	SI (selectivity index, IC50 nontumor cells/IC50 cancer cells), IEC-18 [9]	viability at 72 h [10] [%]	IC50 [11] [µM]	ΦF of the standard sample [12]
2.4 ± 0.1	19.5 ± 0.1	2539	7.712	0.76	546		CC1(C)CC[C@]2(C(=O)O)CC[C@]3(C)C(=CC[C@@H]4[C@@]5(C)CC[C@H](OC(=O)CCCCCNc6ccc([N+](=O)[O-])c7nonc67)C(C)(C)[C@@H]5CC[C@]43C)[C@@H]2C1 [Compound 1, 3β-((6-((7-Nitrobenzo[c][1,2,5]oxadiazol-4-yl)amino)hexanoyl)oxy)olean-12-en-28-oic Acid]				37.9 ± 0.2	3	39.7 ± 1.2	17		41 ± 0.3	2	75 to 90	12.5 ± 0.1	
							CCN(CC)c1ccc2cc(-c3nc4ccccc4s3)c(=O)oc2c1 [Coumarin 6]													0.78
39.5 ± 0.8	45.2 ± 0.9	1986	7.621	0.55	546	> 50	CC1(C)CC[C@]2(C(=O)O)CC[C@]3(C)C(=CC[C@@H]4[C@@]5(C)C[C@@H](OC(=O)CCCCCCCNc6ccc([N+](=O)[O-])c7nonc67)[C@H](O)C(C)(C)[C@@H]5CC[C@]43C)[C@@H]2C1 [Compound 6, 3β-Hydroxy-2α-((8-((7-nitrobenzo[c][1,2,5]oxadiazol-4-yl)amino)octanoyl)oxy)olean-12-en-28-oic Acid]			481									98.5 ± 0.8	

SMILES	IC50 [2] [µM]	IC50 [3] [µM]	ε (molar extinction coefficient) [5] [M^–1 cm^–1]	τ (half-life time of fluorescence) [5] [ns]	Φ (fluorescence quantum yield) [5]	(λem)max [5] [nm]	IC50 [13] [µM]	percentage of apoptosis [1] [%]	percentage of apoptosis [4] [%]	(λabs)max [5] [nm]	IC50 [6] [µM]	SI (selectivity index, IC50 nontumor cells/IC50 cancer cells), WRL68 [6]	IC50 [7] [µM]	SI (selectivity index, IC50 nontumor cells/IC50 cancer cells), HPF [7]	percentage of apoptosis [8] [%]	IC50 [9] [µM]	SI (selectivity index, IC50 nontumor cells/IC50 cancer cells), IEC-18 [9]	viability at 72 h [10] [%]	IC50 [11] [µM]	ΦF of the standard sample [12]
CC1(C)CC[C@]2(C(=O)O)CC[C@]3(C)C(=CC[C@@H]4[C@@]5(C)C[C@@H](OC(=O)CCCCCNc6ccc([N+](=O)[O-])c7nonc67)[C@H](O)C(C)(C)[C@@H]5CC[C@]43C)[C@@H]2C1 [Compound 2, 3β-Hydroxy-2α-((6-((7-nitrobenzo[c][1,2,5]oxadiazol-4-yl)amino)hexanoyl)oxy)olean-12-en-28-oic Acid]	4.9 ± 0.4	6.6 ± 0.1	3166	7.681	0.71	546		53	48	480	10 ± 0.3	1	14.8 ± 1.5	3	55	14.7 ± 0.7	2	75 to 90	13.9 ± 0.6	
